Reference: patent US20260232666A1, “COMPOSITIONS AND METHODS FOR INHIBITION OF RAS” (TheRas, Inc., priority 2023, published 2026)
pIC50: −log10 of the molar value.

Experiments:
[1] = biological target: T1, Avi-KRAS G12C (1-169) GppNHp/RAF1 RBD-3×FLAG (52-151) (Homo sapiens, UniProt P01116, G12C); assay: Raf1 RBD-KRAS G12C-GppNHp disruption assay (protein:protein interaction HTRF); format: biochemical
T1 construct: Avi-KRAS G12C (1-169) GppNHp; Avi (N)
Procedure: Biological Example 2: Disrupting KRAS G12C-Effector Binding (Protein: Protein Interaction HTRF Assay)
A protein: protein interaction (PPI) Homogeneous Time Resolved Fluorescence (HTRF) assay was used to determine the effectiveness of compounds of the present disclosure in disrupting KRAS G12C protein and effector (RAF1 Ras Binding Domain (RBD)) binding.
The HTRF assay used the following reagents and proteins: 50 nM Avi-KRAS G12C (1-169) GppNHp/RAF1 RBD-3×FLAG (52-151); 35 nM Avi-PI3K RBD-3×FLAG; Assay Buffer: 50 mM Tris pH 7.5, 100 mM NaCl, 5 mM MgCl2, 0.1% BSA, 0.01% Tween 20, 10% DMSO; Bead Buffer: 50 mM Tris pH 7.5, 0.01% Tween 20; Assay volume: 20 μL (384 well plate-low volume format); and Compound titration: 30-0.02 μM, 3× dilution series.
The HTRF assay employed the following protocol:
Compounds were dispensed in assay plate (384-well, Grenier Bio-One #784075) using Echo (model 555) with dose response settings: 200 nL final volume, titration from 100 μM as a 10-point dilution series. KRAS proteins were prepared in assay buffer, and dispensed on plates, 5 μL per well, then incubated for 1 h at room temperature, with 700 rpm shaking. RAF1 RBD were prepared in assay buffer, dispensed onto plates, 5 μL per well, and then incubated for 1 h at room temperature, with 700 rpm shaking. Reagent mix was then prepared and dispensed on plates, 10 μL per well, and then incubated for 1 h at room temperature, with 700 rpm shaking.
Plates were analyzed on an Envision plate reader using the following setting: Excitation 320 nm, Bandwidth 75 nm; Emission 615 nm, Bandwidth 85 nm; Gain 100%; Flashes 100; Lag 60 μs. Data was reported as percentage of activity, with DMSO as 100%. Data was plotted and analyzed using Prism 8.
The percent of modification of GppNHp, GTP, or GDP loaded KRAS G12C by MALDI-TOF MS, biochemical Raf1 RBD-KRAS G12C-GppNHp disruption assay IC50, and pERK inhibition IC50 of selected compounds described herein are shown in Table 4. For percent of modification at 15 minutes (MALDI-TOF MS) of GppNHp, GTP, or GDP loaded KRAS G12C: A: percent of modification ≥70%; B: 50≤percent of modification <70%; C: 10%≤percent of modification <50%; D: percent of modification <10%. […] For pERK inhibition in H358 cell assay: A: IC50≤0.1 μM; B: 0.1 μM<IC50≤1 μM; C: IC50>1 μM. Blanks in the table represent that compound was not tested in the indicated assay.

pERK in NCI-H358 cells = assay: Cell-based pERK HTRF assay (pERK inhibition in H358 cells); conditions: 30 min incubation
Outline: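 NCI-H358 cells were seeded at 4×10^4 cells/well in RPMI/10% FBS, then treated next day for 30 min at 0.25% DMSO (9-point, 3-fold series from 75 μM). Lysates were read by HTRF (d2/Eu cryptate antibody pair, 615 nm emission) after 4–24 h at room temperature to give pERK IC50.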

[2] = biological target: T2, GppNHp-loaded KRAS4b (amino acids 1-169) G12C/C118S protein (Homo sapiens, UniProt P01116, C118S/G12C); assay: Covalent cysteine 12 modification by MALDI-TOF MS, GppNHp-loaded KRAS G12C; format: binding; conditions: 15 minutes reaction time point
T2 construct: KRAS4b (amino acids 1-169) G12C/C118S protein; made in house
Outline: (§1)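 With several adducts, each species' height is expressed as a fraction of all observed protein peaks, scored on linear-mode spectra. Reactions run at pH 7.3 (HEPES, 150 mM NaCl, 1 mM MgCl2), using 1 μM protein and a 1:2.5 protein:compound ratio, and are sampled after 15 minutes in the dark.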

[3] = biological target: T3, GTP-loaded KRAS4b (amino acids 1-169) G12C/C118S protein (Homo sapiens, UniProt P01116, C118S/G12C); assay: Covalent cysteine 12 modification by MALDI-TOF MS, GTP-loaded KRAS G12C; format: binding; conditions: 15 minutes reaction time point
T3 construct: KRAS4b (amino acids 1-169) G12C/C118S protein; made in house
Outline: as §1

[4] = biological target: T4, GDP-loaded KRAS4b (amino acids 1-169) G12C/C118S protein (Homo sapiens, UniProt P01116, C118S/G12C); assay: Covalent cysteine 12 modification by MALDI-TOF MS, GDP-loaded KRAS G12C; format: binding; conditions: 15 minutes reaction time point
T4 construct: KRAS4b (amino acids 1-169) G12C/C118S protein; made in house
Outline: as §1

C=CC(=O)N1CC[C@@H](N(C)c2nc(OC[C@@]34CCCN3C[C@H](F)C4)nc3c(F)c(-c4ccc(F)c5sc(N)c(C#N)c45)c(C(F)(F)F)cc23)[C@@H]1C (atropisomer, axis not shown) [Compound 71]
pIC50 [1]: 5.30 to 6.30
pIC50 (pERK in NCI-H358 cells): 6.00 to 7.00

C=CC(=O)N1CC[C@@H](N(C)c2nc(OC[C@@]34CCCN3C[C@H](F)C4)nc3cc(-c4ccc(F)c5sc(N)c(C#N)c45)c(F)cc23)[C@H]1C [Compound 15]
pIC50 [1]: > 6.30

C=CC(=O)N1CC[C@@H](N(C)c2nc(OC[C@@]34CCCN3C[C@H](F)C4)nc3cc(-c4ccc(F)c5sc(N)c(C#N)c45)c(C#N)cc23)[C@H]1C [Compound 16]
pIC50 [1]: > 6.30
pIC50 (pERK in NCI-H358 cells; Homo sapiens, NCI-H358, 0.5 h): > 7.00

C=CC(=O)N1CC[C@@H](N(C)c2nc(OC[C@@H]3CCCN3C)nc3c(F)c(-c4ccc(F)c5sc(N)c(C#N)c45)c(C(F)(F)F)cc23)[C@@H]1C [Compound 38]
pIC50 [1]: > 6.30
GppNHp-KRAS G12C percent of modification [2]: A (percent of modification ≥70%)
pIC50 (pERK in NCI-H358 cells; Homo sapiens, NCI-H358, 0.5 h): > 7.00

C=CC(=O)N1CC[C@@H](N(C)c2nc(OC[C@@]34CCCN3C[C@H](F)C4)nc3c(F)c(-c4ccc(F)c5sc(N)c(C#N)c45)ccc23)[C@@H]1C [Compound 43]
pIC50 [1]: > 6.30
GppNHp-KRAS G12C percent of modification [2]: A (percent of modification ≥70%)
pIC50 (pERK in NCI-H358 cells; Homo sapiens, NCI-H358, 0.5 h): > 7.00

[2H]C1([2H])CCC2(C([2H])([2H])Oc3nc(N4CC(C)N(C(=O)C=C)CC4C)c4cc(C(F)(F)F)c(-c5ccc(F)c6sc(N)c(C#N)c56)c(F)c4n3)CC(F)CN12 (stereo not shown) [Compound 96]
pIC50 [1]: > 6.30
pIC50 (pERK in NCI-H358 cells; Homo sapiens, NCI-H358, 0.5 h): > 7.00

[2H]C1([2H])CN2C[C@H](F)C[C@]2(COc2nc(N(CC)[C@@H]3CCN(C(=O)C=C)[C@@H]3C)c3cc(F)c(-c4ccc(F)c5sc(N)c(C#N)c45)cc3n2)C1 [Compound 123]
pIC50 [1]: > 6.30
pIC50 (pERK in NCI-H358 cells; Homo sapiens, NCI-H358, 0.5 h): > 7.00

[2H]C1([2H])CN2C[C@H](F)C[C@]2(COc2nc(N3C[C@@H](C)N(C(=O)C=C)C[C@@H]3C)c3cc(C(F)(F)F)c(-c4ccc(F)c5sc(N)c(C#N)c45)c(F)c3n2)C1 [Compound 125]
pIC50 [1]: > 6.30
GppNHp-KRAS G12C percent of modification [2]: A (percent of modification ≥70%)

[2H]C1([2H])CN2C[C@H](F)C[C@]2(COc2nc(N(C)[C@@H]3CCN(C(=O)C=C)[C@@H]3C)c3cc(C(F)(F)F)c(-c4ccc(F)c5sc(N)c(C#N)c45)c(F)c3n2)C1 [Compound 128, 4-(4-(((2R,3R)-1-acryloyl-2-methylpyrrolidin-3-yl)(methyl)amino)-8-fluoro-2-(((2R,7aS)-2-fluorotetrahydro-1H-pyrrolizin-7a(5H)-yl-6,6-d2)methoxy)-6-(trifluoromethyl)quinazolin-7-yl)-2-amino-7-fluorobenzo[b]thiophene-3-carbonitrile]
pIC50 [1]: > 6.30
GppNHp-KRAS G12C percent of modification [2]: A (percent of modification ≥70%)
pIC50 (pERK in NCI-H358 cells; Homo sapiens, NCI-H358, 0.5 h): > 7.00

C=CC(=O)N1CC[C@@H](N(C)c2nc(OC[C@]34CCCN3C[C@H](F)C4)nc3c(F)c(-c4ccc(F)c5sc(N)c(C#N)c45)c(C(F)(F)F)cc23)[C@H]1C [Compound 157]
pIC50 [1]: > 6.30
pIC50 (pERK in NCI-H358 cells; Homo sapiens, NCI-H358, 0.5 h): > 7.00

C=CC(=O)N1CC[C@@H](N(C)c2nc(OC[C@@]34CCCN3C[C@H](OC)C4)nc3c(F)c(-c4ccc(F)c5sc(N)c(C#N)c45)c(Cl)cc23)[C@H]1C [Compound 160]
GTP-KRAS G12C percent of modification [3]: A (percent of modification ≥70%)
pIC50 [1]: > 6.30
pIC50 (pERK in NCI-H358 cells; Homo sapiens, NCI-H358, 0.5 h): > 7.00

C=CC(=O)N1CC[C@@H](N(C)c2nc(OC[C@]34CCCN3C[C@H](F)C4)nc3c(F)c(-c4ccc(F)c5sc(N)c(C#N)c45)c(Cl)cc23)[C@H]1C [Compound 162]
pIC50 [1]: > 6.30
GppNHp-KRAS G12C percent of modification [2]: A (percent of modification ≥70%)
pIC50 (pERK in NCI-H358 cells; Homo sapiens, NCI-H358, 0.5 h): > 7.00

C=CC(=O)N1CC[C@@H](N(CC)c2nc(OC[C@]34CCCN3C[C@H](F)C4)nc3c(F)c(-c4ccc(F)c5sc(N)c(C#N)c45)ccc23)[C@H]1C [Compound 170]
pIC50 [1]: > 6.30
GppNHp-KRAS G12C percent of modification [2]: A (percent of modification ≥70%)
pIC50 (pERK in NCI-H358 cells; Homo sapiens, NCI-H358, 0.5 h): > 7.00

C=CC(=O)N1CC[C@@H](N(C)c2nc(OC[C@@H]3CC(=C(F)F)CN3C)nc3c(F)c(-c4ccc(F)c5sc(N)c(C#N)c45)c(Cl)cc23)[C@H]1C [Compound 202]
GDP-KRAS G12C percent of modification [4]: B (50≤percent of modification <70%)
GTP-KRAS G12C percent of modification [3]: C (10%≤percent of modification <50%)
GppNHp-KRAS G12C percent of modification [2]: B (50≤percent of modification <70%)
pIC50 (pERK in NCI-H358 cells; Homo sapiens, NCI-H358, 0.5 h): 6.00 to 7.00

C=CC(=O)N1CC[C@@H](N(C)c2nc(O[C@@H](C)[C@@H]3C(=C)CCN3C)nc3c(F)c(-c4ccc(F)c5sc(N)c(C#N)c45)c(C(F)(F)F)cc23)[C@H]1C [Compound 203]
GDP-KRAS G12C percent of modification [4]: A (percent of modification ≥70%)
GTP-KRAS G12C percent of modification [3]: A (percent of modification ≥70%)
GppNHp-KRAS G12C percent of modification [2]: A (percent of modification ≥70%)
pIC50 (pERK in NCI-H358 cells; Homo sapiens, NCI-H358, 0.5 h): > 7.00

C=CC(=O)N1CC[C@@H](N(C)c2nc(O[C@@H](C)[C@@H]3CC(=C(F)F)CN3C)nc3c(F)c(-c4ccc(F)c5sc(N)c(C#N)c45)c(C(F)(F)F)cc23)[C@H]1C [Compound 204]
GDP-KRAS G12C percent of modification [4]: C (10%≤percent of modification <50%)
GTP-KRAS G12C percent of modification [3]: C (10%≤percent of modification <50%)
GppNHp-KRAS G12C percent of modification [2]: C (10%≤percent of modification <50%)
pIC50 (pERK in NCI-H358 cells; Homo sapiens, NCI-H358, 0.5 h): 6.00 to 7.00

C=CC(=O)N1CC[C@@H](N(C)c2nc(OC[C@@H]3CC(=C(F)F)CN3C)nc3c(F)c(-c4ccc(F)c5sc(N)c(C#N)c45)c(C(F)(F)F)cc23)[C@H]1C [Compound 205]
GDP-KRAS G12C percent of modification [4]: C (10%≤percent of modification <50%)
GTP-KRAS G12C percent of modification [3]: C (10%≤percent of modification <50%)
GppNHp-KRAS G12C percent of modification [2]: B (50≤percent of modification <70%)
pIC50 (pERK in NCI-H358 cells; Homo sapiens, NCI-H358, 0.5 h): > 7.00

C=CC(=O)N1CCC(N(C)c2nc(OC(C)C3CC(=C(F)F)CN3C)nc3c(F)c(-c4ccc(F)c5sc(N)c(C#N)c45)c(Cl)cc23)C1C (stereo not shown) [Compound 206]
GDP-KRAS G12C percent of modification [4]: A (percent of modification ≥70%)
GTP-KRAS G12C percent of modification [3]: B (50≤percent of modification <70%)
GppNHp-KRAS G12C percent of modification [2]: A (percent of modification ≥70%)
pIC50 (pERK in NCI-H358 cells; Homo sapiens, NCI-H358, 0.5 h): 6.00 to 7.00

C=CC(=O)N1CC[C@@H](N(C)c2nc(O[C@@H](C)[C@@H]3C(=C(F)F)CCN3C)nc3c(F)c(-c4ccc(F)c5sc(N)c(C#N)c45)c(C(F)(F)F)cc23)[C@H]1C [Compound 207]
GDP-KRAS G12C percent of modification [4]: B (50≤percent of modification <70%)
GTP-KRAS G12C percent of modification [3]: C (10%≤percent of modification <50%)
GppNHp-KRAS G12C percent of modification [2]: B (50≤percent of modification <70%)
pIC50 (pERK in NCI-H358 cells; Homo sapiens, NCI-H358, 0.5 h): > 7.00
